From US9139543B2, “Thiazole compounds and uses thereof” (Institute of Pharmacology and Toxicology Academy of …, priority 2012, dated 2015) come the findings set out here.

The structures appear in SMILES notation.

The first test deals with myocardial cells. As to the kind of experiment: Activity of preventing cardiomyocyte apoptosis induced by TM (MTT cell survival). The format is cell-based, Neonatal Wistar rats. The note with it: Cardiomyocyte, primary neonatal rat myocardial cells, compound 30 min before TM 0.5 μg/ml, 48 h, read-out: Protection effects against cardiomyocyte apoptosis induced by TM, EC50. As for the experimental part: Neonatal Wistar rats newborn within 24 h, not confined to female or male (provided by the Center of Laboratory Animals, Academy of Military Medical Science of the PLA, animal certificate No.: SCXK-( ? ) 2007-004). High-sugar DMEM culture medium, trypsinase, and type II collagenase purchased from Gibco Company; fetal bovine serum (FBS) purchased from Beijing Yuanhengshengma Biological Technology Institute; 5-bromo-2-deoxyuridine (5-Brdu), tunicamycin (TM) purchased from Sigma Company; thiazolyl blue (MTT), dimethyl sulfoxide (DMSO) which is the product of Amresco; other chemical agents were all analytical pure and made in China. Universal Microplate ReaderEL800 type of ELIASA was a product of BIO-TEK Company of US.
neonatal Wistar rats newborn within 24 h were used, skin of abdomen was sterilized with iodine and alcohol. Tissue of ventricular apex was taken out with aseptic operation, cut into pieces with 1 mm^3 size, added with suitable amount of 0.125% pancretin and 0.1% collagenase II (final concentration was respectively 0.1% and 0.02%), mechanical shaking in 37° C. water-bath, 10 min each time, digested repeatedly until the tissue pieces were completely digested. The prepared myocardial cell suspension was inoculated in a 75 cm^2 culture flask. Non-myocardial cells were removed by differential adhesion method. The myocardial cell density was adjusted with DMEM culture medium containing 10% FBS, inoculated to a 96-well plate in an amount of 10^4/ml, placed in 5% CO2 incubator at 37° C. for 24 h for primary culture. Half medium was replaced after 24 h, a culture medium containing 0.1% 5-Brdu (5-bromo-2-deoxyuridine) was replenished to inhibit the growth of non-myocardial cells. The medium was replaced once per 48 h for primary culture.
Measurement of compound activity: myocardial cells were cultured for 4 days, respectively treated with compound in different concentrations (0.3 μM, 1 μM, 3 μM) for 30 min, then added with TM to final concentration of 0.5 μg/ml (TM group with final concentration of 0.5 μg/ml and solvent control group (DMSO) were set at the same time), and placed in 37° C., 5% CO2 incubator and cultured for 48 h, then each well was added with 10 μl of MTT (5 mg/ml) and continuously incubated for 4 h, finally each well was added with 100 μL of 10% SDS, incubated at 37° C., 5% CO2 for 24 h, so that MTT crystal was completely dissolved. ELISA was used to measure light absorbance of each well under 550 nm wavelength, in which TM and the compound of the present invention were formulated with DMSO. The formula is: cell survival rate (%)=OD value of administration group/average OD value of solvent control well×100%. The results were expressed in x±SD, and EC50 values (Table 1) were calculated with software, so that the effect of compound of the present invention preventing cardiomyocyte apoptosis induced by TM was determined.
One may read the EC50 as the concentration at which the effect is half-maximal. On to `O=C(/C=C/c1ccccc1)NC(Nc1nc(-c2ccc(Cl)cc2)cs1)C(Cl)(Cl)Cl` (stereo not shown) [Example 5, (2E)-3-(2-phenyl)-N-[1-(4-chlorophenyl-2-thiazolyl)-2,2,2-trichloroethyl]-2-acrylamide], for which the concentration for a half-maximal effect (EC50) was 0.3 µM.
On to `O=C(/C=C/c1ccccc1)NC(Nc1nc(-c2ccccc2)c(-c2ccccc2)s1)C(Cl)(Cl)Cl` (stereo not shown) [Example 2], for which the EC50 turned out to be 47 µM.
As for `COc1ccc(-c2csc(NC(NC(=O)/C=C/c3ccccc3)C(Cl)(Cl)Cl)n2)cc1` (stereo not shown) [Example 3, (2E)-3-(2-phenyl)-N-[1-(4-methoxyphenyl-2-thiazolyl)-2,2,2-trichloroethyl]-2-acrylamide], the concentration for a half-maximal effect (EC50) came to 61 µM.
Consider `COc1ccc(-c2nc(NC(NC(=O)/C=C/c3ccccc3)C(Cl)(Cl)Cl)sc2-c2ccccc2)cc1` (stereo not shown) [Example 1], for which the concentration giving a half-maximal response (EC50) was found to be 100 µM.
On the same count and under the same terms, next, `O=C(/C=C/c1ccccc1)NC(Nc1nc(-c2ccccc2)cs1)C(Cl)(Cl)Cl` (stereo not shown) [Example 6]: 30 µM; `O=C(/C=C/c1ccccc1)NC(Nc1nc(-c2ccc(F)cc2F)cs1)C(Cl)(Cl)Cl` (stereo not shown) [Example 4, (2E)-3-(2-phenyl)-N-[1-(2,4-difluorophenyl-2-thiazolyl)-2,2,2-trichloroethyl]-2-acrylamide]: 0.8 µM.

The same test, now with this note: primary neonatal rat myocardial cells, TM 0.5 μg/ml.
Regarding `O=C(/C=C/c1ccccc1)NC(Nc1nc(-c2ccc(Cl)cc2)cs1)C(Cl)(Cl)Cl` (stereo not shown) [Example 5, (2E)-3-(2-phenyl)-N-[1-(4-chlorophenyl-2-thiazolyl)-2,2,2-trichloroethyl]-2-acrylamide], the “Protection effects against cardiomyocyte apoptosis induced by TM (in words)” value is “good protection effects”.
